# In patent publication US20220401429A1, “USE OF ANAMORELIN TO TREAT CANCER-RELATED FATIGUE” (Helsinn Healthcare SA, priority 2021, published 2022):
# Experiments:
# Type in all cases: in vivo, human
# [1] = system: patients with advanced cancer; assay: FACIT-F fatigue subscale, single arm study of anamorelin (Example 1); details: for FACIT-F Fatigue Subscale, change, Mean (±SD): change from baseline, 100 mg oral daily + physical activity + nutritional counseling
# Excerpt: This study was undertaken to isolate and evaluate anamorelin's effect on fatigue, energy expenditure, and other side effects of cancer in a cancer-stricken population, by including in the study population only those patients suffering significant levels of fatigue and inflammatory activity, excluding from the study population confounding factors such as depression and anemia, and controlling for a consistent level of nutrition and physical exercise.
# (§1) In this single arm study, 38 patients were intended for treatment with anamorelin for 6 weeks with an optional extension phase of 6 more weeks based on tolerability and safety and patient willingness. Patients received anamorelin 100 mg tablets and physical activity for 6 weeks for the intervention phase. Patients took 1 tablet orally while fasting (at least 1 hour before a meal).
# • diagnosis of advanced cancer (metastatic or recurrent incurable solid tumors excluding prostate cancer) • fatigue on FACIT-F subscale of ≤34 on a 0 to 52 scale [in which 52=no fatigue and 0=worst possible fatigue] • CRP ≥3 mg/L* in the absence of any other more likely cause of increased CRP like an infection or an autoimmune disorder • unintentional weight loss of from 2% to 15% at any time within the previous 12 months • No evidence of moderate to severe depression as determined by a HADS depression score of ≤13 • Hemoglobin level ≥9 g/dL
# A primary objective of the study was to examine the effects of anamorelin and standardized physical activity and nutritional counseling on changes in the Functional Assessment of […] (FACIT-F) subscale score at Day 43±3 days compared to baseline in patients with advanced cancer receiving oral anamorelin 100 mg daily and standardized physical activity and nutritional counseling.
# FACIT-F is a well-validated QOL instrument in cancer patients (Cella, Tulsky et al. 1993). The 13-item fatigue subscale is a patient-rated assessment of intensity of fatigue and its related symptoms on a scale of 0 to 4.
# [2] = system: patients with advanced cancer; assay: Edmonton Symptom Assessment Scale (ESAS), Example 1 study; details: change from baseline, 100 mg oral daily + physical activity + nutritional counseling
# Procedure: as §1
# (§2) Secondary objectives of the study were to examine the effects of anamorelin and standardized physical activity and nutritional counseling on Health-related quality of life and patient reported outcomes as measured by The Multidimensional Fatigue Symptom Inventory-Short Form[MFSI-SF], PROMIS-Fatigue, Hospital Anxiety Depression Scale (HADS), Edmonton Symptom Assessment Scale (ESAS), Functional Assessment of Cancer Therapy (FACT-G), and its Functional Assessment of Anorexia/Cachexia Treatment (FAACT) subscale in these patients.
# The ESAS measures 10 common symptoms in the past 24 hours (pain, fatigue, nausea, depression, anxiety, drowsiness, shortness of breath, appetite, sleep, and feeling of well-being); This questionnaire has been found valid and reliable in cancer populations (Bruera, Kuehn et al. 1991).
# [3] = system: patients with advanced cancer; assay: Multidimensional Fatigue Symptom Inventory-Short Form (MFSI-SF), Example 1 study; details: change from baseline, 100 mg oral daily + physical activity + nutritional counseling
# Procedure: as §1, §2
# MFSI-SF consists of 30 items designed to assess the multidimensional nature of fatigue(Stein, Jacobsen et al. 2004). Ratings are summed to obtain scores for 5 subscales (general fatigue, physical fatigue, emotional fatigue, mental fatigue, and vigor).
smiles,measurement,setting,value
CN(C)N(C)C(=O)[C@@]1(Cc2ccccc2)CCCN(C(=O)[C@@H](Cc2c[nH]c3ccccc23)NC(=O)C(C)(C)N)C1 [anamorelin],"FACIT-F increase from baseline, linear mixed model with time as categorical variable",[1]; 43-day measure,4.89
same,"FACIT-F Fatigue Subscale, change, Mean (±SD)",[1]; Day 15 (N = 28),"3.89 (±8.71),"
same,"FACIT-F Fatigue Subscale, change, Mean (±SD)",[1]; Day 29 (N = 28),"6.32 (±9.53),"
same,"FACIT-F Fatigue Subscale, change, Mean (±SD)",[1]; Day 86 (N = 8),"8.13 (±12.62),"
same,Effect size for improvement in CRF,"[1]; this study, FACIT-F Day 43 (Cohen's D)",0.37
same,"FACIT-F average increase over time, linear mixed model","[1]; time effect, FIG. 1",0.11 units per day
same,"ESAS Appetite, change, Mean (±SD)",[2]; Day 15 (N = 28),"−0.43 (±3.06),"
same,"ESAS-Fatigue, change, Mean (±SD)",[2]; Day 15 (N = 28),"−0.68 (±2.87),"
same,"ESAS Appetite, change, Mean (±SD)",[2]; Day 29 (N = 28),"−1.04 (±3.19),"
same,"ESAS-Fatigue, change, Mean (±SD)",[2]; Day 29 (N = 28),"−0.75 (±2.70),"
same,"ESAS Appetite, change, Mean (±SD)",[2]; Day 43 (N = 28),"−0.56 (±3.07),"
same,"ESAS-Fatigue, change, Mean (±SD)",[2]; Day 43 (N = 28),"−0.81 (±2.87),"
same,"ESAS Appetite, change, Mean (±SD)",[2]; Day 86 (N = 8),"−0.13 (±3.09),"
same,"ESAS-Fatigue, change, Mean (±SD)",[2]; Day 86 (N = 8),"−1.25 (±2.43),"
same,"MFSI-SF Emotional fatigue, change, Mean (±SD)",[3]; Day 15 (N = 28),"−0.43 (±2.20),"
same,"MFSI-SF General fatigue, change, Mean (±SD)",[3]; Day 15 (N = 28),"−2.25 (±4.53),"
same,"MFSI-SF Mental fatigue, change, Mean (±SD)",[3]; Day 15 (N = 28),"−0.93 (±2.57),"
same,"MFSI-SF Physical fatigue, change, Mean (±SD)",[3]; Day 15 (N = 28),"−0.71 (±3.69),"
same,"MFSI-SF Total, change, Mean (±SD)",[3]; Day 15 (N = 28),"−4.79 (±9.59),"
same,"MFSI-SF Vigor, change, Mean (±SD)",[3]; Day 15 (N = 28),"0.46 (±2.89),"
same,"MFSI-SF Emotional fatigue, change, Mean (±SD)",[3]; Day 29 (N = 28),"0.14 (±3.15),"
same,"MFSI-SF General fatigue, change, Mean (±SD)",[3]; Day 29 (N = 28),"−4.18 (±5.74),"
same,"MFSI-SF Mental fatigue, change, Mean (±SD)",[3]; Day 29 (N = 28),"−1.39 (±2.90),"
same,"MFSI-SF Physical fatigue, change, Mean (±SD)",[3]; Day 29 (N = 28),"−0.50 (±4.43),"
same,"MFSI-SF Total, change, Mean (±SD)",[3]; Day 29 (N = 28),"−6.32 (±12.41),"
same,"MFSI-SF Vigor, change, Mean (±SD)",[3]; Day 29 (N = 28),"0.39 (±3.46),"
same,"MFSI-SF Emotional fatigue, change, Mean (±SD)",[3]; Day 43 (N = 28),"1.04 (±4.36),"
same,"MFSI-SF Mental fatigue, change, Mean (±SD)",[3]; Day 43 (N = 28),"−0.36 (±4.12),"
same,"MFSI-SF Physical fatigue, change, Mean (±SD)",[3]; Day 43 (N = 28),"−0.39 (±5.03),"
same,"MFSI-SF Total, change, Mean (±SD)",[3]; Day 43 (N = 28),"−2.07 (±17.59),"
same,"MFSI-SF Vigor, change, Mean (±SD)",[3]; Day 43 (N = 28),"−1.11 (±5.28),"
same,"MFSI-SF Emotional fatigue, change, Mean (±SD)",[3]; Day 86 (N = 8),"−0.88 (±2.42),"
same,"MFSI-SF General fatigue, change, Mean (±SD)",[3]; Day 86 (N = 8),"−4.00 (±6.28),"
